Drawing on patent US20260055108A1, “TRIAZINE COMPOUNDS AND USES THEREOF” (HUTCHMED LIMITED, priority 2022, published 2026), this text covers GI50 and IC50 for 17 compounds.

The subject of assay [1] is MV-4-11 cells (human acute myelogenous leukemia cell line carrying MLL-AF4 mutation). The experiment in a line: Cell proliferation assay, MV-4-11 (CellTiter-Glo). Format: cell-based. The settings on record: Homo sapiens, MV4-11, 72 h, MV-4-11 cells, 3 days treatment, CellTiter-Glo; read-out: GI50. As for the experimental part: Example 4 Cell Proliferation Assay
MV-4-11 (ATCC, CRL-9591), a human acute myelogenous leukemia cell line carrying MLL-AF4 mutation. Cells were cultured in an IMDM medium containing 10% heat-inactivated fetal bovine serum (HIFBS) and supplemented with 50 μM β-mercaptoethanol.
2. Reagents, Materials and Instruments:
• IMDM culture solution: GIBCO, 12440-053; • HIFBS: GIBCO, 10100-147; • β-mercaptoethanol: Sigma, M3148; • CellTiter-Glo® 2.0 assay kit (CTG): Promega, G9243; • DMSO: Sigma, D4540; • 96-well cell culture plate: Corning, 3903; • Envision: PerkinElmer.
MV-4-11 cells were resuspended in a medium, added to a 96-well plate at a density of 3000 cells/well with a volume of 100 μL/well, and cultured in a cell incubator at 5% CO2 and 37° C. for 4 hours. The test compound subjected to gradient dilution with the medium was added to a cell culture plate, and the final concentrations of the compound were 1.100, 0.367, 0.122, 0.041, 0.014, 0.005, 0.002 and 0.001 μM, respectively. The corresponding volume of DMSO diluent was added to a blank control well, and the final concentrations of DMSO in the experimental group and control group were both 0.1%. The cell plate was placed in a cell incubator at 5% CO2 and 37° C. and cultured for 3 days.
On day 0 and day 3 of the treatment, 50 μL/well CTG reagent was added to the cell plate and shaken at room temperature in the dark for 10 min, and then the chemiluminescence value of each well was measured with Envision.
[formula] • wherein: • luminescence valuetest sample: the chemiluminescence value of a cell well treated with the test compound for 3 days. • luminescence valueday 0: the chemiluminescence value of a cell well at day 0. • luminescence valuecell well: the chemiluminescence value of a cell well not treated with the compound for 3 days.
(§1) • calculated by using software XL-Fit™ (version 5.3) supplied by ID Business Solutions (Guildford, UK), which is an additional software to Microsoft Excel.
Background: Cellular ATP, detected with luciferase, serves as a proxy for viable cell number.

Assay [2] concerns the target Recombinant human Menin protein (2-610) / MLL polypeptide binding (Homo sapiens (Human), UniProt O00255). Kind of assay: Menin and MLL protein binding at a molecular level (fluorescence polarization method). The settings on record: inhibition of Menin / MLL polypeptide binding.
Excerpt: Example 3: Determination of the Activity of the Compounds of the Present Invention on Menin and MLL Protein Binding at a Molecular Level (Fluorescence Polarization Method)
1. Reagents, Materials and Instruments:
• Recombinant human Menin protein (2-610): ChemPartner, CP2021020801; • MLL polypeptide (6-FAM-Ahx-SG-40): GL Biochem, 865700; • Trizma® hydrochloride buffer solution (Tris): Sigma, T2194-1 L; • NaCl: Invitrogen, AM9760G; • TCEP: Sigma, 646547; • DMSO: Sigma, D4540; • 384-well plate: Corning, 4514; • Envision: PerkinElmer.
2. Preparation of Reaction Solutions
• 1) Buffer solution: 20 mL of Tris and 4 mL of NaCl were added respectively to 376 mL of ddH2O, with pH adjusted to 7.5, and TCEP was added before testing with a dilution ratio of 1:500. • 2) 5× test compounds: the test compound was subjected to gradient dilution with the buffer solution to 5-fold the reaction concentration, so that the final concentrations of the compound were 1.000, 0.333, 0.111, 0.037, 0.012, 0.004, 0.001 and 0.0005 μM, respectively. • 3) 2.5× Menin protein reaction solution: the Menin protein was diluted to 5 nM with the buffer solution. • 4) 2.5×MLL polypeptide reaction solution: the MLL polypeptide was diluted to 5 nM with the buffer solution.
1) Binding Reaction (20 μL System)
4 μL of 5× test compound was added to each reaction well of the 384-well plate, and the corresponding volume of 10% DMSO was added to the control wells. Except the control wells, 8 μL of Menin protein reaction solution was added to each well. The reaction solution was incubated at room temperature for 30 minutes, and then 8 μL of MLL polypeptide reaction solution was added to each well. The final concentrations of DMSO in the test compound wells and control wells were all 2%. The 384-well plate was sealed and incubated at room temperature for 30 minutes in the dark.
Three control groups were set up: • a blank control group only containing a buffer solution; • a negative control group only containing MLL polypeptide reaction solution; and • a positive control group containing Menin protein reaction solution and MLL polypeptide reaction solution.
The vertical polarization S value and the horizontal polarization P value (excitation wavelength was 480 nm, and emission wavelength was 535 nm) were measured with Envision.
Corrected S is the S value of the negative control group—the S value of the blank control group
Corrected P is the P value of the negative control group—the P value of the blank control group
as §1

pIC50: −log10 of the molar value.

Recombinant human Menin protein (2-610) / MLL polypeptide binding, sequence (O00255 2-610): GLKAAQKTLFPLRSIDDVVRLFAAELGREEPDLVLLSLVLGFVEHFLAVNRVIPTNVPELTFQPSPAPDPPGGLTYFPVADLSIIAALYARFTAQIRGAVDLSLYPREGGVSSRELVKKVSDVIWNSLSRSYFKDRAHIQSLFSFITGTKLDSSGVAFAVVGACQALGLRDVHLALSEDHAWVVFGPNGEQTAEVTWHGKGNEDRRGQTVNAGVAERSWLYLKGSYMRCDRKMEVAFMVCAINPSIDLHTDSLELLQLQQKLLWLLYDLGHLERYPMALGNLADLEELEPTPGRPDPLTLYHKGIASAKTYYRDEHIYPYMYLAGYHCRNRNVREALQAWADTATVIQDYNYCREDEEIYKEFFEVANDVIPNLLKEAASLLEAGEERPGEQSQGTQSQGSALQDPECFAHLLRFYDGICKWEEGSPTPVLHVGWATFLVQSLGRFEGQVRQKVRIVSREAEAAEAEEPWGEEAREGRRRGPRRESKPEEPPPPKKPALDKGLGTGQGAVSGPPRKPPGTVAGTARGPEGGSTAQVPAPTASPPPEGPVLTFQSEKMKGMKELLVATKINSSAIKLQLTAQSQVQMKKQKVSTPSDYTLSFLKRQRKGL

As to `CCN(C(=O)c1cc(F)ccc1Oc1nncnc1N1CC2(CCN(CC3CCN(c4ccn5ncnc5c4)CC3)CC2)C1)C(C)C` [Compound 55, 2-((5-(7-((1-([1,2,4]triazolo[1,5-a]pyridin-7-yl)piperidin-4-yl)methyl)-2,7-diazaspiro[3.5]nonan-2-yl)-1,2,4-triazin-6-yl)oxy)-N-ethyl-5-fluoro-N-isopropylbenizamide], the GI50 (usually the concentration that inhibits growth by half) in assay [1] turned out to be 4 nM. Also, the pIC50 (in general, −log10 of the IC50, conventionally taken in molar units) in assay [2] was 8.46.
For `CCN(C(=O)c1cc(F)ccc1Oc1nncnc1N1CC2(CCN(CC3CCN(c4ccc5ncnn5c4)CC3)CC2)C1)C(C)C` [Compound 56] the same measures were 45 nM and 7.55.
In the same order, the values of `CCN(C(=O)c1cc(F)ccc1Oc1nncnc1N1CC2(CCN(CC3CCN(c4ccccn4)CC3)CC2)C1)C(C)C` [Compound 57, N-ethyl-5-fluoro-N-isopropyl-2-((5-(7-((1-(pyridin-2-yl)piperidin-4-yl)methyl)-2,7-diazaspiro[3.5]nonan-2-yl)-1,2,4-triazin-6-yl)oxy)benzamide] are 5 nM and 8.52.
For `CCN(C(=O)c1cc(F)ccc1Oc1nncnc1N1CC2(CCN(Cc3c(C)cc(C)[nH]c3=O)CC2)C1)C(C)C` [Compound 58] the same measures were 230 nM and 6.94.
Consider `CCN(C(=O)c1cc(F)ccc1Oc1nncnc1N1CC2(CCN(Cc3ccc(Cl)nc3)CC2)C1)C(C)C` [Compound 59], for which, in assay [1], the GI50 is more than 3300 nM. Further, the pIC50 in assay [2] was less than 6.00.
In the same order, the values of `CCN(C(=O)c1cc(F)ccc1Oc1nncnc1N1CC2(CCN(Cc3cnc(OC)c(Cl)c3C)CC2)C1)C(C)C` [Compound 60] are 693 nM and 6.24.
For the compound `CCN(C(=O)c1cc(F)ccc1Oc1nncnc1N1CC2(CCN(Cc3ccc(NCC#N)cc3C)CC2)C1)C(C)C` [Compound 61], the GI50 in assay [1] was 110 nM. In addition, the pIC50 in assay [2] was 7.05.
In the same order, the values of `CCN(C(=O)c1cc(F)ccc1Oc1nncnc1N1CC2(CCN(Cc3ccc4[nH]ccc4c3)CC2)C1)C(C)C` [Compound 62] are 193 nM and 6.49.
In the same order, the values of `CCN(C(=O)c1cc(F)ccc1Oc1nncnc1N1CC2(CCN(Cc3ccc4[nH]ncc4c3)CC2)C1)C(C)C` [Compound 64] are 226 nM and 6.79.
In the case of `CCN(C(=O)c1cc(F)ccc1Oc1nncnc1N1CC2(CCN(Cc3ccc4[nH]c(C#N)cc4c3C)CC2)C1)C(C)C` [Compound 66], in assay [1], the GI50 stood at 3 nM. Moreover, the pIC50 in assay [2] is 8.92.
For the compound `CCN(C(=O)c1cc(F)ccc1Oc1nncnc1N1CC2(CCN(Cc3ccc4oc(C)nc4c3)CC2)C1)C(C)C` [Compound 67], the GI50 in assay [1] turned out to be 309 nM. Moreover, the pIC50 in assay [2] is 6.29.
For `CCN(C(=O)c1cc(F)ccc1Oc1nncnc1N1CC2(CCN(Cc3ccc4oc(C)cc4c3)CC2)C1)C(C)C` [Compound 68] the same measures were 71 nM and 7.30.
For `CCN(C(=O)c1cc(F)ccc1Oc1nncnc1N1CC2(CCN(Cc3ccc4oc(C#N)cc4c3)CC2)C1)C(C)C` [Compound 69] the same measures were 16 nM and 8.07.
As for `CCN(C(=O)c1cc(F)ccc1Oc1nncnc1N1CC2(CCN(Cc3ccc4nc(OC)ncc4c3)CC2)C1)C(C)C` [Compound 70], the concentration for 50% growth inhibition (GI50) in assay [1] was 2150 nM. Moreover, the pIC50 in assay [2] is less than 6.00.
In the same order, the values of `CCN(C(=O)c1cc(F)ccc1Oc1nncnc1N1CC2(CCN(Cc3ccc4nc(C)ncc4c3)CC2)C1)C(C)C` [Compound 71] are 1280 nM and less than 6.00.
For `CCN(C(=O)c1cc(F)ccc1Oc1nncnc1N1CC2(CCN(Cc3ccc4[nH]c(=O)ccc4c3)CC2)C1)C(C)C` [Compound 72] the same measures were 81 nM and 7.55.
In the same order, the values of `CCN(C(=O)c1cc(F)ccc1Oc1nncnc1N1CC2(CCN(Cc3cnc4c(c3)OC[C@H](c3ccc(OC)nc3)O4)CC2)C1)C(C)C` [Compound 73] are 1270 nM and less than 6.00.
